Measurements taken from article PMC11845477, “Exploring the principles behind antibiotics with limited resistance” (Nature Communications, 2025).

How the values were obtained:
Experiment in all cases: Frequency-of-resistance (FoR) assay, relative MIC of mutants
[1] = tested on: A. baumannii ATCC 17978 (SEN) and A. baumannii ATCC BAA-1605 (MDR); type: cell-based, Acinetobacter baumannii
Protocol: (§1) The susceptibility of antibiotics to resistance development was evaluated in two strains of each bacterial species: a multidrug-resistant strain and an antibiotic-sensitive strain of Escherichia coli, Klebsiella pneumoniae, Acinetobacter baumannii, and Pseudomonas aeruginosa. To explore first-step resistance, we previously used a standard protocol for spontaneous frequency-of-resistance analysis (FoR assay) at multiple concentrations of each antibiotic[10],[28],[31]–[33]. […] For all other combinations, approximately 10^10 bacterial cells were exposed to one of each antibiotic on agar plates for two days at concentrations where the given strain is susceptible. We examined resistance levels by contrasting the minimum inhibitory concentration (MICs) of the mutated strains to the original wild-type bacterial strain (i.e., relative MIC).
(§2) To estimate the frequency of spontaneous mutations that confer resistance in a microbial population, we conducted a frequency of resistance (FoR) assay following established protocols[10],[31]–[33]. […] Prior to plating, bacteria were grown overnight in MHB medium at 37 °C and 250 RPM, then centrifuged and washed in MHB. All experiments were performed in triplicate, and plates were incubated at 37 °C for 48 hours. Total colony-forming units (CFUs) were determined by plating appropriate dilutions onto antibiotic-free MHB agar. Resistance frequencies were calculated by dividing the number of resistant colonies by the initial viable cell count. From the plates with the highest antibiotic concentration, ten colonies were selected for MIC determination and whole-genome sequencing.
(§3) A robotic liquid handling system was used to automatically prepare a 11 to 16-step serial dilution in 384-well microtiter plates (Greiner). A final concentration of 5 × 10^5 bacterial cells per mL were inoculated into each well containing 60 µL MHB medium. Bacterial cultures were incubated at 37 °C with continuous shaking (Infors shaker, 900 rpm with 3 mm throw) for 18 hours (2 replicates from each). Cell growth was monitored by measuring the optical density (OD600 values, using Biotek Synergy microplate reader). MIC was defined as the antibiotic concentration of complete growth inhibition (i.e., OD600 < 0.05). Relative MIC was calculated as follows:1 relativeMIC=MICevolved/MICancestor […]
(§4) Supplementary Figure 3. Resistance levels following the frequency of resistance assay across bacterial strains. The level of resistance was measured as the fold change in relative MIC between evolved and ancestral strains. Data are grouped by bacterial strain (A. baumannii (AB), E. coli (EC), K. pneumoniae (KP), and P. aeruginosa (PA)) and categorized as either multidrug-resistant (MDR) or sensitive (SEN). Each data point represents a laboratory evolved line, and boxplots show the median, first and third quartiles, with whiskers indicating the 5th and 95th percentiles. […]
(§5) analysis was performed using two-sided Dunn’s post-hoc test with Benjamini-Hochberg correction for multiple comparisons (**/ * indicates p < 0.01/ 0.05). For detailed information on antibiotic and bacterial species, see Supplementary Table 1. For mode of action groups, refer to Table 1. Source data are provided as a Source Data file.

[2] = tested on: K. pneumoniae ATCC 10031 (SEN) and K. pneumoniae ATCC 700603 (MDR); type: cell-based, Klebsiella pneumoniae
Protocol: as §1, §2, §3, §4, §5

[3] = tested on: E. coli ATCC 25922 (SEN) and E. coli NCTC13846 (MDR); type: cell-based, Escherichia coli
Protocol: as §1, §2, §3, §4, §5

[4] = Acinetobacter baumannii ATCC 17978 (AB-SEN), evolved line 1
[5] = Acinetobacter baumannii ATCC 17978 (AB-SEN), evolved line 2
[6] = Acinetobacter baumannii ATCC 17978 (AB-SEN), evolved line 3
[7] = Klebsiella pneumoniae ATCC 10031 (KP-SEN), evolved line 1
[8] = Klebsiella pneumoniae ATCC 10031 (KP-SEN), evolved line 2
[9] = Klebsiella pneumoniae ATCC 10031 (KP-SEN), evolved line 3
[10] = Klebsiella pneumoniae ATCC 700603 (KP-MDR), evolved line 1
[11] = Klebsiella pneumoniae ATCC 700603 (KP-MDR), evolved line 2
[12] = Klebsiella pneumoniae ATCC 700603 (KP-MDR), evolved line 3
[13] = E. coli NCTC 13846 (EC-MDR), evolved line 1
[14] = E. coli NCTC 13846 (EC-MDR), evolved line 2
[15] = E. coli NCTC 13846 (EC-MDR), evolved line 3

Molecule | MIC of evolved line [1, 4] [µg/mL] | MIC of evolved line [1, 5] [µg/mL] | MIC of evolved line [1, 6] [µg/mL] | MIC of evolved line [2, 7] [µg/mL] | MIC of evolved line [2, 8] [µg/mL] | MIC of evolved line [2, 9] [µg/mL] | MIC of evolved line [2, 10] [µg/mL] | MIC of evolved line [2, 11] [µg/mL] | MIC of evolved line [2, 12] [µg/mL] | MIC of evolved line [3, 13] [µg/mL] | MIC of evolved line [3, 14] [µg/mL] | MIC of evolved line [3, 15] [µg/mL] | other results
C[C@@H](O)[C@H]1C(=O)N2C(C(=O)O)=C(S[C@H]3CC[S@@+]([O-])C3)S[C@H]12 [Sulopenem] | 4 | 4 | 4 | 0.0312 | 0.0312 | 0.0312 | 4 | 4 | 8 | 0.0625 | 0.0312 | 0.0312 | Relative MIC ([1]; Acinetobacter baumannii ATCC 17978 (AB-SEN), evolved line 1 versus ancestor): 4; Relative MIC ([1]; Acinetobacter baumannii ATCC 17978 (AB-SEN), evolved line 2 versus ancestor): 4; Relative MIC ([1]; Acinetobacter baumannii ATCC 17978 (AB-SEN), evolved line 3 versus ancestor): 4; Relative MIC ([2]; Klebsiella pneumoniae ATCC 10031 (KP-SEN), evolved line 1 versus ancestor): 1; Relative MIC ([2]; Klebsiella pneumoniae ATCC 10031 (KP-SEN), evolved line 2 versus ancestor): 1; Relative MIC ([2]; Klebsiella pneumoniae ATCC 10031 (KP-SEN), evolved line 3 versus ancestor): 1; Relative MIC ([2]; Klebsiella pneumoniae ATCC 700603 (KP-MDR), evolved line 1 versus ancestor): 8; Relative MIC ([2]; Klebsiella pneumoniae ATCC 700603 (KP-MDR), evolved line 2 versus ancestor): 8; Relative MIC ([2]; Klebsiella pneumoniae ATCC 700603 (KP-MDR), evolved line 3 versus ancestor): 16; Relative MIC ([3]; E. coli NCTC 13846 (EC-MDR), evolved line 1, evolved vs ancestor): 2; Relative MIC ([3]; E. coli NCTC 13846 (EC-MDR), evolved line 2, evolved vs ancestor): 1; Relative MIC ([3]; E. coli NCTC 13846 (EC-MDR), evolved line 3, evolved vs ancestor): 1; MIC of evolved line ([3]; Escherichia coli ATCC 25922 (EC-SEN), evolved line 1): 0.0156 µg/mL; MIC of evolved line ([3]; Escherichia coli ATCC 25922 (EC-SEN), evolved line 2): 0.0156 µg/mL; MIC of evolved line ([3]; Escherichia coli ATCC 25922 (EC-SEN), evolved line 3): 0.0156 µg/mL; Relative MIC ([3]; Escherichia coli ATCC 25922 (EC-SEN), evolved line 1 versus ancestor): 1; Relative MIC ([3]; Escherichia coli ATCC 25922 (EC-SEN), evolved line 2 versus ancestor): 1; Relative MIC ([3]; Escherichia coli ATCC 25922 (EC-SEN), evolved line 3 versus ancestor): 1
polymyxin-B | 0.5 | 0.5 | 0.5 | 2 | 2 | 2 | 0.5 | 4 | 32 | 4 | 4 | 4 | MIC of evolved line ([1]; Acinetobacter baumannii ATCC BAA 1605 (AB-MDR), evolved line 3): 16 µg/mL; MIC of evolved line ([3]; E. coli ATCC 25922 (EC-SEN), evolved line 1): 4 µg/mL; MIC of evolved line ([3]; E. coli ATCC 25922 (EC-SEN), evolved line 2): 1 µg/mL; MIC of evolved line ([3]; E. coli ATCC 25922 (EC-SEN), evolved line 3): 8 µg/mL
